In general, LD50 refers to the dose at which mortality reaches 50%.

“And” between values parts separate entries of the source, which are not always exact repeats. Equal values may be shown once.

From patent US5135746A, “Control of protozoal disease” (Takeda Chemical Industries, Ltd., priority 1989, dated 1992) come the findings set out here.

Data set [1] concerns Laboratory Standard Strain Eimeria tenella. Put plainly: Anticoccidial effect in White Leghorn chicks infected with laboratory standard strain Eimeria tenella, drugs in feed for 9 days (Table 1). Type of data set: in vivo. The arrangement: Caecal Lesion: scale not given here. Particulars: for OPG: day7; for Caecal Lesion: day-8. As to the method:
(§1) The effect of the drugs to coccidiosis was examined using chicks. Namely, nine-day-old White Leghorn male chicks were divided into groups each of which consists of 3 chicks, and 5×10^4 sporulated oocysts per chick of laboratory standard strain Eimeria tenella were orally inoculated into the chicks in all groups except for the control group in which the chicks were not infected and not dosed with the drugs, at 24 hours after the start of dosing. Prescribed amounts of respective plant components dried and crushed and monensin sodium or salinomycin sodium were added to the basal feed (SDL No. 1: Nippon Haigo Shiryo), and continuously administered by the free ingesting method for 9 days from 24 hours before infection to 8 days after infection. The weight of each chick was measured, and the bloody dropping were observed. Further, the chicks were autopsied at day-8 after infection to examine the caecel lesion. Thus, the anticoccidial effect of the administered test drugs was determined.
Note ^1) Weight gain ratio = (Average weight gain for each test
Note ^2) The bloody feces index is indicated by the number of bloody
Note ^3) The caecal lesion is indicated by an average score when
Note ^5) The ND means "not detected".

Data set [2] can be described thus: Acute toxicity by oral administration to mice. Particulars: mouse, in vivo.
The test system of data set [3] is Field Isolate Eimeria tenella (AMD). Briefly: Anticoccidial effect in chicks infected with field isolate Eimeria tenella (AMD) resistant against ionophore antibiotics, 30,000 oocysts per chick (Tables 2-4). Type of data set: in vivo.
For data set [4], the system named is Laboratory Standard Strain Eimeria tenella (AMD). Put plainly: Combined effect of ionophore antibiotics and Rhizophoraceae bark in infected chicks (Table 5). Type of data set: in vivo. As to the method:
as §1
The combined administration effect of the ionophore antibiotics and Rhizophoraceae bark was examined, by an infection experiment method in accordance with the method in Example 1.

The test system of data set [5] is Field Chicken Coocidia of Mixed Species. Put plainly: Combined effect of monensin and Rhizophoraceae bark in chicks infected with field coccidia of mixed species, 10,000 oocysts per chick (Table 6). Type of data set: in vivo, mixed strain containing five or more kinds of coccidia. Conditions: 80 ppm in feed. As to the method: as §1
Using the mixed strain (large size oocysts: 5%, middle size oocysts: 72%, small size oocysts: 23%) collected in the field and containing five or more kinds of coccidia, the combined administration effect of monensin and Rhizophoraceae bark against chicks infected with 10,000 oocysts per chick was examined, by an infection experiment method in accordance with the method in Example 1. In Table 6, the general intestine lesion value was obtained by converting the sum of values judged by the five steps from 0 to +4 to a value per chick, for the lesion of upper, middle and lower parts of small intestine and caecum, according to the method described in Johnson and Reid, Exp. Parasitol. 28, 30-36 (1970). Other determinations were carried out in the same manner as with Example 1.

As for `C=CCc1ccc(O)c(-c2ccc(O)c(CC=C)c2)c1` [Honokiol, honokiol], in data set [1] (125 ppm in feed), the Mortality is on record as 1/3, the “No. of Bloody Droppings” value is listed as 13.3, the “Weight Gain Ratio” value came to 41.6% and the OPG came out at 5.1 log. For the same molecule, the “Caecal Lesion” value in data set [1] (125 ppm in feed) came out at 4.0. Also, in data set [1] (500 ppm in feed), the Mortality is 0/3, the “No. of Bloody Droppings” value is recorded as 1.0, the “Weight Gain Ratio” value is reported as 99.4% and the OPG came to 4.9 log. In addition, in data set [1] (500 ppm in feed), the “Caecal Lesion” value is given as 3.3.

Consider `C=CCc1ccc(O)c(-c2cc(CC=C)ccc2O)c1` [Magnolol], for which, in data set [1] (125 ppm in feed), the Mortality is 0/3, the “No. of Bloody Droppings” value is 13.3, the “Weight Gain Ratio” value is on record as 62.5% and the OPG was found to be 5.3 log. The “Caecal Lesion” value in data set [1] (125 ppm in feed) turned out to be 4.0. In data set [1] (250 ppm in feed), the Mortality is reported as 0/3, the “No. of Bloody Droppings” value is reported as 3.7, the “Weight Gain Ratio” value worked out at 89.3% and the OPG is on record as 5.8 log. In addition, in data set [1] (250 ppm in feed), the “Caecal Lesion” value is listed as 4.0. In data set [1] (500 ppm in feed), the Mortality was 0/3, the “No. of Bloody Droppings” value was determined as 1.3, the “Weight Gain Ratio” value is 94.5% and the OPG stood at 3.2 log. Also, in data set [1] (500 ppm in feed), the “Caecal Lesion” value is given as 3.3. Besides, in data set [2], the LD50 was 2200 mg/kg.

For `CCC1(C2OC(C3OC(O)(CO)C(C)CC3C)CC2C)CCC(C2(C)CCC3(CC(O)C(C)C(C(C)C(OC)C(C)C(=O)O)O3)O2)O1` (stereo not shown) [Monensin, monensin sodium], the Mortality in data set [1] (40 ppm in feed) is 1/3; in data set [1] (60 ppm in feed), 0/3; in data set [1] (80 ppm in feed), 0/6; in data set [1] (120 ppm in feed), 0/6; in data set [3] (80 ppm in feed) it was 0/5; in data set [3] (100 ppm in feed) it was 0/5. Besides, the Mortality was 0/5 in data set [3] (160 ppm in feed), 0/5 in data set [3] (240 ppm in feed), 0/9 in data set [4] (80 ppm in feed) and 1/6 in data set [5]. Also, the “No. of Bloody Droppings” value in data set [1] (40 ppm in feed) was 13.3; in data set [1] (60 ppm in feed), 7.3; in data set [1] (80 ppm in feed), 1.0; in data set [1] (120 ppm in feed), 0; in data set [3] (80 ppm in feed), 10.0 and 9.0; in data set [3] (100 ppm in feed), 8.0. Besides, the “No. of Bloody Droppings” value is listed as 0 in data set [3] (160 ppm in feed), 0 in data set [3] (240 ppm in feed), 5.0 in data set [4] (80 ppm in feed) and 6.0 in data set [5]. The “Weight Gain Ratio” value in data set [1] (40 ppm in feed) is 36.7%; in data set [1] (60 ppm in feed) it was 92.9%; in data set [1] (80 ppm in feed) it was 103.2%; in data set [1] (120 ppm in feed) it was 103.2%; in data set [3] (80 ppm in feed) it was 54.8% and 72.3%; in data set [3] (100 ppm in feed), 72.6%. The “Weight Gain Ratio” value in data set [3] (160 ppm in feed) was 81.5% and 86.5%; in data set [3] (240 ppm in feed) it was 46.5%; in data set [4] (80 ppm in feed), 88%; in data set [5], 89%. For the same molecule, the OPG was 4.5 log in data set [1] (40 ppm in feed); 4.6 log in data set [1] (60 ppm in feed); 4.3 log in data set [1] (80 ppm in feed); 3.4 log in data set [1] (120 ppm in feed); 6.2 log and 6.1 log in data set [3] (80 ppm in feed); 6.1 log in data set [3] (100 ppm in feed). Moreover, the OPG in data set [3] (160 ppm in feed) came out at 4.7 log. Further, the “Caecal Lesion” value in data set [1] (40 ppm in feed) is 4.0; in data set [1] (60 ppm in feed) it was 4.0; in data set [1] (80 ppm in feed), 2.2; in data set [1] (120 ppm in feed), 0; in data set [3] (80 ppm in feed), 4.0 and 3.8; in data set [3] (100 ppm in feed), 4.0. The “Caecal Lesion” value is listed as 0 in data set [3] (240 ppm in feed), 3.2 in data set [4] (80 ppm in feed) and 5.5 in data set [5] (general intestine lesion value). Moreover, in data set [3] (in feed), the “concentration at which sufficient antiprotozoal activity is shown” value was not below 160 ppm.

Consider `CC[C@@H](C(=O)[C@@H](C)[C@@H](O)[C@H](C)[C@@H]1O[C@@H]([C@@H](CC)C(=O)O)CC[C@@H]1C)[C@H]1O[C@]2(C=C[C@@H](O)[C@]3(CC[C@@](C)([C@H]4CC[C@](O)(CC)[C@H](C)O4)O3)O2)[C@H](C)C[C@@H]1C` [Salinomycin, salinomycin sodium], for which, in data set [3] (50 ppm in feed), the “Caecal Lesion” value came out at 3.2, the Mortality is recorded as 0/5, the “No. of Bloody Droppings” value is reported as 9.0 and the OPG worked out at 5.8 log. The “Weight Gain Ratio” value in data set [3] (50 ppm in feed) is listed as 80.3%. In data set [4] (50 ppm in feed), the “Caecal Lesion” value amounted to 3.6, the Mortality is 1/9, the “No. of Bloody Droppings” value was 7.0 and the “Weight Gain Ratio” value was 62%.
